Assay results reported in ChEMBL document CHEMBL5352421, “Identification of novel piperazine-tethered phthalazines as selective CDK1 inhibitors endowed with in vitro anticancer activity toward the pancreatic cancer” (Eur J Med Chem, 2022).
Calls of active or inactive are those of the source. The rule behind the calls is not given here.

What was measured:
[1] = Antiproliferative activity against human MDA-PATC53 cells assessed as growth inhibition incubated at 10 uM for 24 hrs by MTT assay relative to control; assay type: functional; details: read-out: GI
[2] = Antiproliferative activity against human PL45 cells assessed as growth inhibition incubated at 10 uM for 24 hrs by MTT assay relative to control; assay type: functional; details: read-out: GI
[3] = test system: SK-MEL-1; assay: Antiproliferative activity against human SK-MEL-1 cells assessed as growth inhibition incubated at 10 uM for 24 hrs by MTT assay relative to control; assay type: functional; details: read-out: GI
[4] = test system: A-375; assay: Antiproliferative activity against human A-375 cells assessed as growth inhibition incubated at 10 uM for 24 hrs by MTT assay relative to control; assay type: functional; details: read-out: GI
[5] = test system: G-361; assay: Antiproliferative activity against human G-361 cells assessed as growth inhibition incubated at 10 uM for 24 hrs by MTT assay relative to control; assay type: functional; details: read-out: GI
[6] = test system: MOLT-4; assay: Antiproliferative activity against human MOLT-4 cells assessed as growth inhibition incubated at 10 uM for 24 hrs by MTT assay relative to control; assay type: functional; details: read-out: GI
[7] = test system: KG-1; assay: Antiproliferative activity against human KG-1 cells assessed as growth inhibition incubated at 10 uM for 24 hrs by MTT assay relative to control; assay type: functional; details: read-out: GI
[8] = test system: T84; assay: Antiproliferative activity against human T84 cells assessed as growth inhibition incubated at 10 uM for 24 hrs by MTT assay relative to control; assay type: functional; details: read-out: GI
[9] = test system: HT-29; assay: Antiproliferative activity against human HT-29 cells assessed as growth inhibition incubated at 10 uM for 24 hrs by MTT assay relative to control; assay type: functional; details: read-out: GI
[10] = test system: MCF7; assay: Antiproliferative activity against human MCF7 cells assessed as growth inhibition incubated at 10 uM for 24 hrs by MTT assay relative to control; assay type: functional; details: read-out: GI
[11] = test system: BT-549; assay: Antiproliferative activity against human BT-549 cells assessed as growth inhibition incubated at 10 uM for 24 hrs by MTT assay relative to control; assay type: functional; details: read-out: GI
[12] = Antiproliferative activity against human MDA-PATC53 cells assessed as growth inhibition incubated for 24 hrs by MTT assay; assay type: functional, cell-based; details: MDA-PATC53, 24 h
[13] = Antiproliferative activity against human PL45 cells assessed as growth inhibition incubated for 24 hrs by MTT assay; assay type: functional, cell-based; details: PL45, 24 h
[14] = biological target: Cyclin-dependent kinase 1 (Homo sapiens, UniProt P06493); assay: Inhibition of CDK1 (unknown origin) by FRET assay
[15] = biological target: Cyclin-dependent kinase 2 (Homo sapiens, UniProt P24941); assay: Inhibition of CDK2 (unknown origin) by FRET assay
[16] = biological target: Cyclin-dependent kinase 5 (Homo sapiens, UniProt Q00535); assay: Inhibition of CDK5 (unknown origin) by FRET assay
[17] = Selectivity index, ratio of IC50 for CDK2 (unknown origin) to CDK1 (unknown origin)
[18] = Selectivity index, ratio of IC50 for CDK5 (unknown origin) to CDK1 (unknown origin)
[19] = biological target: T1, Tyrosine-protein kinase receptor UFO (Homo sapiens, UniProt P30530); assay: Inhibition of AXL (unknown origin) by FRET assay
T1 sequence (P30530 whole entry): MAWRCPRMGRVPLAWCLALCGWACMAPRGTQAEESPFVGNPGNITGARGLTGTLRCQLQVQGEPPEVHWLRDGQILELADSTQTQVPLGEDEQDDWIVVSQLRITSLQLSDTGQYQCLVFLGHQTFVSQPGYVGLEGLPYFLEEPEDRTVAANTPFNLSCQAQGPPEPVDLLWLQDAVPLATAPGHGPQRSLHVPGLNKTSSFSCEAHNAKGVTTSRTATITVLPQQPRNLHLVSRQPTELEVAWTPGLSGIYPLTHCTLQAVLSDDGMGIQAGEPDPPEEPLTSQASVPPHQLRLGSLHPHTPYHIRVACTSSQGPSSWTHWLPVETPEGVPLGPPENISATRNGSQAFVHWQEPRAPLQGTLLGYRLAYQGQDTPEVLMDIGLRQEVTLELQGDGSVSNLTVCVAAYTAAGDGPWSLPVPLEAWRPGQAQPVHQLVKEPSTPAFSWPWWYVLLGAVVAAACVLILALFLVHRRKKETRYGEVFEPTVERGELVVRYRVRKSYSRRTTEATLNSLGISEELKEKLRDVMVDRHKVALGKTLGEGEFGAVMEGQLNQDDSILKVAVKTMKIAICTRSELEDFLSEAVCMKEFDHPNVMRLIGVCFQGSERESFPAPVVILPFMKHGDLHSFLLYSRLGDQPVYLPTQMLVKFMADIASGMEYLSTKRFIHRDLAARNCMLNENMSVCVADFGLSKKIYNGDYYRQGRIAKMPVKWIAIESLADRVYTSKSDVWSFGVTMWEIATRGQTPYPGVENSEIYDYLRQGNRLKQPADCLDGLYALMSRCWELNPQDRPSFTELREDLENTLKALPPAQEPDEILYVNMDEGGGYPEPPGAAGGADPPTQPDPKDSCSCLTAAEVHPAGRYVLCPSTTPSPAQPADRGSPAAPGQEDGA

[20] = biological target: Protein-tyrosine kinase 2-beta (Homo sapiens, UniProt Q14289); assay: Inhibition of PTK2B (unknown origin) by FRET assay
[21] = biological target: Fibroblast growth factor receptor (Homo sapiens, UniProt P22607+P11362+P22455+P21802); assay: Inhibition of FGFR (unknown origin) by FRET assay; assay type: protein assay
[22] = biological target: Tyrosine-protein kinase JAK1 (Homo sapiens, UniProt P23458); assay: Inhibition of JAK1 (unknown origin) by FRET assay
[23] = biological target: Insulin-like growth factor 1 receptor (Homo sapiens, UniProt P08069); assay: Inhibition of IGF1R (unknown origin) by FRET assay
[24] = biological target: Serine/threonine-protein kinase B-raf (Homo sapiens, UniProt P15056); assay: Inhibition of BRAF (unknown origin) by FRET assay
[25] = test system: MDA-PATC53; assay: Downregulation of CDK1 expression in human MDA-PATC53 cells incubated at IC50 for 24 hrs by Western blotting analysis; assay type: functional, cell-based
[26] = Induction of cell cycle arrest in human MDA-PATC53 cells assessed as accumulation of cells at G2/M phase incubated at IC50 for 24 hrs measured by flow cytometric analysis (reference value: 9%); assay type: functional
[27] = test system: MDA-PATC53; assay: Induction of cell cycle arrest in human MDA-PATC53 cells assessed as accumulation of cells at S phase incubated at IC50 for 24 hrs measured by flow cytometric analysis; assay type: functional, cell-based

Chain of Cyclin-dependent kinase 1 (P06493 whole entry): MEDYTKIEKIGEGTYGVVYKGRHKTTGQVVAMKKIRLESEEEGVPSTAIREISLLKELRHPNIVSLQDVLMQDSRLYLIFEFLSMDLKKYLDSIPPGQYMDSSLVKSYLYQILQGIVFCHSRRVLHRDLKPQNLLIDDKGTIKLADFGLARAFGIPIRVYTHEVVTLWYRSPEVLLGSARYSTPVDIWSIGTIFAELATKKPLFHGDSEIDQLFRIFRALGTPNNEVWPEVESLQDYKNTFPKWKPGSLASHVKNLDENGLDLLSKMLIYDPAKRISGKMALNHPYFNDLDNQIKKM
Chain of Insulin-like growth factor 1 receptor (P08069 31-736 limits assumed): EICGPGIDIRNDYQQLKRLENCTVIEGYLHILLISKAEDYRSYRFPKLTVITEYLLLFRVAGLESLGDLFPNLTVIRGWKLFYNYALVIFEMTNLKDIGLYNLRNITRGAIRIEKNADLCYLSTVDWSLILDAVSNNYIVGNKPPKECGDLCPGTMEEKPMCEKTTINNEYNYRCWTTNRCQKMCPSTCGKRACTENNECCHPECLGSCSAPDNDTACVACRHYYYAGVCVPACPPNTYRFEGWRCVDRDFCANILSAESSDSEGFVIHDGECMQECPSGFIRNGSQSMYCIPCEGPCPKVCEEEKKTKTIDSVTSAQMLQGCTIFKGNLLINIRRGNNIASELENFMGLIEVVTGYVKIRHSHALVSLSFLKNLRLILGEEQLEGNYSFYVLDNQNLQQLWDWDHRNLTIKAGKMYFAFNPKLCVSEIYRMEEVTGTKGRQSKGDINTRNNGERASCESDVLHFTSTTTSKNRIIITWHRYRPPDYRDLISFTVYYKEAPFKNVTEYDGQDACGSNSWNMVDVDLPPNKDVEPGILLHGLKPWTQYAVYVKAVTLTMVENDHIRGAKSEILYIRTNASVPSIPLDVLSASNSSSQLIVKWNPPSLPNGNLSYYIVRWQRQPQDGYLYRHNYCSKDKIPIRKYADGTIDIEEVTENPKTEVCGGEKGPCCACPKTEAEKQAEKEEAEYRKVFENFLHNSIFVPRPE
Chain of Insulin-like growth factor 1 receptor (P08069 741-1367 limits assumed): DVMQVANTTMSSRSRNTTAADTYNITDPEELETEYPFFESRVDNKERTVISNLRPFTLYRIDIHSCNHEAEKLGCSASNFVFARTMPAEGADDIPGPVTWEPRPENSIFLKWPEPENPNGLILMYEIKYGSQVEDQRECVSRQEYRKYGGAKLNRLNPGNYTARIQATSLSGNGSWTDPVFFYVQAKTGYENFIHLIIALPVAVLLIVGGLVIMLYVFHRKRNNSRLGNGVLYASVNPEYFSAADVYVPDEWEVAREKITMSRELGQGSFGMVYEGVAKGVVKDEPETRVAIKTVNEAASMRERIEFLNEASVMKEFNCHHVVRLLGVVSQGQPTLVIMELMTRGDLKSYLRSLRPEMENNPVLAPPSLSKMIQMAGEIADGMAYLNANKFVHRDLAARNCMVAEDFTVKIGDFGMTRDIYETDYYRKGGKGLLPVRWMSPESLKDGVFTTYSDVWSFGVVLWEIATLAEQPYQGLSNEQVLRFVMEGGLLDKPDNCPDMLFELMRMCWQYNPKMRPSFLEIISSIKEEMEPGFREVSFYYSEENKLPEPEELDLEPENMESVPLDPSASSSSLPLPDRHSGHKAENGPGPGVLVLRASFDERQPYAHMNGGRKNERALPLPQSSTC
Chain of Protein-tyrosine kinase 2-beta (Q14289 whole entry): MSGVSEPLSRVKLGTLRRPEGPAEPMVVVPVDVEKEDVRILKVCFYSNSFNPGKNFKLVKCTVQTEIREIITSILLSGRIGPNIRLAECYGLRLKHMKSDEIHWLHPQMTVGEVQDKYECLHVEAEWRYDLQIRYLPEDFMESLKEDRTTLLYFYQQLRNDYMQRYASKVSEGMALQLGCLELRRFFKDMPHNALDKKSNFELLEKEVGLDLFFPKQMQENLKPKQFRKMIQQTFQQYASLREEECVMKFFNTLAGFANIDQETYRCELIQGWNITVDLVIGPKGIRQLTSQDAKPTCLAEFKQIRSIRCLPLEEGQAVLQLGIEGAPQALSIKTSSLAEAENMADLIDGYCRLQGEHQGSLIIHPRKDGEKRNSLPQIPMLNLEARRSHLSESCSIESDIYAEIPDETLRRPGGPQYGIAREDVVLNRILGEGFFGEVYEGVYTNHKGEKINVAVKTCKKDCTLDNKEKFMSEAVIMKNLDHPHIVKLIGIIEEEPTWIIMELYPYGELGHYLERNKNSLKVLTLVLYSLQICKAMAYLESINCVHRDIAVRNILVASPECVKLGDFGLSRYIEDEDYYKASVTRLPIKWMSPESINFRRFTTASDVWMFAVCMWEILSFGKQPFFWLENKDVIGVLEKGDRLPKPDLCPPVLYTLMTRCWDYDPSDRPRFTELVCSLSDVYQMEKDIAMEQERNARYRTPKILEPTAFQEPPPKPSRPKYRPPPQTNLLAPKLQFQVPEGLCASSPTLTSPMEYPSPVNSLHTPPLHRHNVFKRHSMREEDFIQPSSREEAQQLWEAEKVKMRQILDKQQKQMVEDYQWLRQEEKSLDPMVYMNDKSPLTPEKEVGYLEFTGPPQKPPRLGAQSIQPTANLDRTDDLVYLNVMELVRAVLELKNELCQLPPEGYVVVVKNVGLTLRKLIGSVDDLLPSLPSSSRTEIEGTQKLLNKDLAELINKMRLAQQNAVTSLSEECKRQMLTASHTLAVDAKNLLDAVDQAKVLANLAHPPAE
Chain of Cyclin-dependent kinase 5 (Q00535 whole entry): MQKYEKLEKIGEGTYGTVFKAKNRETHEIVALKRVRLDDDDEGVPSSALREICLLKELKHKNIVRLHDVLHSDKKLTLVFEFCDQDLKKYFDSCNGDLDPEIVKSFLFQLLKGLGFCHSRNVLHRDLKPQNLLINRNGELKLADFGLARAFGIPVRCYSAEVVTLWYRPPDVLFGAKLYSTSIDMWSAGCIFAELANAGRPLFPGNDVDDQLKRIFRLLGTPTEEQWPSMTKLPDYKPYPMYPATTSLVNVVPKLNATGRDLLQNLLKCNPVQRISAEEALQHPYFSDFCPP
Chain of Tyrosine-protein kinase JAK1 (P23458 whole entry): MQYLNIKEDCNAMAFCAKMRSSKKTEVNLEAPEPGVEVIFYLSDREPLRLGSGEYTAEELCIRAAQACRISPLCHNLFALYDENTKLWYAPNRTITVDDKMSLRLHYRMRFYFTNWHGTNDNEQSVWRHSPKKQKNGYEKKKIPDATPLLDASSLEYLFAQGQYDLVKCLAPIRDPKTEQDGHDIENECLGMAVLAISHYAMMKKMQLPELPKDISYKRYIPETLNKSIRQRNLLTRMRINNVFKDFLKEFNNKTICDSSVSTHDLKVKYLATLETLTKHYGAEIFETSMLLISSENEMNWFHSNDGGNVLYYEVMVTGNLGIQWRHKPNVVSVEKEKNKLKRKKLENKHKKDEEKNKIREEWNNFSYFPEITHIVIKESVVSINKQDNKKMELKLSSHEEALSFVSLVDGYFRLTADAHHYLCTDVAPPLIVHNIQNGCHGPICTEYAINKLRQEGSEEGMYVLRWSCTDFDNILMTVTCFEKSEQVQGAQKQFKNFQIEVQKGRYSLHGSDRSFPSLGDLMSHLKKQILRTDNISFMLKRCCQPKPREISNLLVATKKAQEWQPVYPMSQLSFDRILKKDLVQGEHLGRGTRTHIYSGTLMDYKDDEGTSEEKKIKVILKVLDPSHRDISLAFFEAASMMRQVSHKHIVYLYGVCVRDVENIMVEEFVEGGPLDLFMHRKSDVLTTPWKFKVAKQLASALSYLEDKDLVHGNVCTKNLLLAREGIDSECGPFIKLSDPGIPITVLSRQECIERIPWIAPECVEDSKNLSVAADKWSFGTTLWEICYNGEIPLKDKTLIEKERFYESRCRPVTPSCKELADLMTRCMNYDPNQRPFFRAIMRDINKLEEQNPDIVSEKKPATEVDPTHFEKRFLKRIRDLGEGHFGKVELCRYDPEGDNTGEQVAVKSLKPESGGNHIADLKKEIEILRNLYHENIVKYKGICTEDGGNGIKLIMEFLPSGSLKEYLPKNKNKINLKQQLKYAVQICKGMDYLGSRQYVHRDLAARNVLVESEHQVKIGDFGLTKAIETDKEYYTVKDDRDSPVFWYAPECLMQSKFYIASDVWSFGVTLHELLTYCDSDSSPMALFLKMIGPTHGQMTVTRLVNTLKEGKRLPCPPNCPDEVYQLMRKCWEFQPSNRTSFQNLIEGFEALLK
Chain of Serine/threonine-protein kinase B-raf (P15056 whole entry): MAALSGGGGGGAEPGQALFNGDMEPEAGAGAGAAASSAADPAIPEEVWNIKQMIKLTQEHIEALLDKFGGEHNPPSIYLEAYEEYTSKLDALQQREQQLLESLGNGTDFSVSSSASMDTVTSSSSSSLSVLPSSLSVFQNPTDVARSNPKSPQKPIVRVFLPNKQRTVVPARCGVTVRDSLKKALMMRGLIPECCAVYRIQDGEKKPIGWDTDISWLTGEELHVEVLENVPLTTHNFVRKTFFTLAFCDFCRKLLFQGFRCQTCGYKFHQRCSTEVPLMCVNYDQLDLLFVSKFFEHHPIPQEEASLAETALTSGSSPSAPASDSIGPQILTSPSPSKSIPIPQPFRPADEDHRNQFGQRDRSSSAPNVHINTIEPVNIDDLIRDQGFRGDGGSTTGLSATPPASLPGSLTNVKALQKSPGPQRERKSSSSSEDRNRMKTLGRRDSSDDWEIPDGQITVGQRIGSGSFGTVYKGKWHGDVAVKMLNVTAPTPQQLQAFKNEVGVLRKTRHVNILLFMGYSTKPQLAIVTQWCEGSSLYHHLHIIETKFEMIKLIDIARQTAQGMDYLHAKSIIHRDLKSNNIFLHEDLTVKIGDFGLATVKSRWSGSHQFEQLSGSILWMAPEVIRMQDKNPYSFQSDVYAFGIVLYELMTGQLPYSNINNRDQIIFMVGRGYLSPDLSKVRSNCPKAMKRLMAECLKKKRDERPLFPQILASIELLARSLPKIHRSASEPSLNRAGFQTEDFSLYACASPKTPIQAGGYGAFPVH

Row | SMILES | inhibition of growth at 10 µM [1] [%] | inhibition of growth at 10 µM [2] [%] | inhibition of growth at 10 µM [3] [%] | inhibition of growth at 10 µM [4] [%] | inhibition of growth at 10 µM [5] [%] | inhibition of growth at 10 µM [6] [%] | inhibition of growth at 10 µM [7] [%] | inhibition of growth at 10 µM [8] [%] | inhibition of growth at 10 µM [9] [%] | inhibition of growth at 10 µM [10] [%] | inhibition of growth at 10 µM [11] [%] | IC50 [12] [nM] | IC50 [13] [nM] | IC50 [14] [nM] | IC50 [15] [nM] | IC50 [16] [nM] | Ratio IC50 [17] | Ratio IC50 [18] | IC50 [19] [nM] | IC50 [20] [nM] | other results
1 | COc1ccc(Cc2nnc(N3CCN(C(=O)Nc4ccc(Cl)c(C(F)(F)F)c4)CC3)c3ccccc23)cc1 | 99 | 97.6 | 74 | 89.2 | 61.4 | 84.1 | 72.3 | 89.6 | 87.4 | 71.4 | 85.5 | 510 | 740 | 36.8 | 305 | 369 | 8.29 | 10 | 5650 | 3630 | IC50 [21]: 4626 nM; IC50 [22]: 5260 nM; IC50 [23]: 5510 nM; IC50 [24]: 2830 nM; Activity [25]: Active; Activity [26]: 21%; Activity [27]: Active
2 | S=C(Nc1cccc(Cl)c1)N1CCN(c2nnc(Cc3ccccc3)c3ccccc23)CC1 | 96.8 | 95.3 | 85.4 | 76.1 | 88 | 85 | 69.1 | 81.7 | 84.3 | 78.2 | 79.3 | 880 | 1140 | 44.5 | 622 | 135 | 14 | 3.04 | 2490 | 8960 | IC50 [21]: 7620 nM; IC50 [22]: 8540 nM; IC50 [23]: 4290 nM; IC50 [24]: 1160 nM; Activity [25]: Active; Activity [26]: 16%; Activity [27]: Active
3 | COc1ccc(Cc2nnc(N3CCN(C(=S)Nc4cccc(Cl)c4)CC3)c3ccccc23)cc1 | 97.1 | 93.5 | 84.2 | 86.4 | 92.3 | 89.3 | 74.2 | 88.2 | 85 | 62 | 78 | 730 | 1000 | 42.2 | 189 | 354 | 4.47 | 8.39 | 5650 | 8950 | IC50 [21]: 2538 nM; IC50 [22]: 2420 nM; IC50 [23]: 8550 nM; IC50 [24]: 8140 nM; Activity [25]: Active; Activity [26]: 14%; Activity [27]: Active
4 | O=C(Nc1ccc(Cl)c(C(F)(F)F)c1)N1CCN(c2nnc(Cc3ccccc3)c3ccccc23)CC1 | 55.4 | 42.4 | 3.34 | 9.17 | 2.47 | 5.22 | 1.35 | 4.71 | 18.9 | 2.2 | 1.08 | 8600 | 13000 | 104 | 722 | 405 | 6.97 | 3.91 | 6950 | 2680 | IC50 [21]: 8565 nM; IC50 [22]: 5180 nM; IC50 [23]: 4250 nM; IC50 [24]: 1480 nM
